Experiment [1] concerns monocytes from PBMC differentiated into M2 macrophage. In words: M2 macrophage differentiation assay. Format: cell-based, human. From the text:
The purpose of this study was to evaluate the effects of lobeglitazone and other thiazolidinediones on M2 macrophage differentiation. The test articles and vehicles used in this study were lobeglitazone sulfate, pioglitazone HCl, and rosiglitazone.
M2 macrophage differentiation assay timeline was as follows in Table 10.
• (1) Isolate monocytes from PBMC using StemCell® monocyte isolation kit • (2) Count cell and adjust the cell density to 0.5×10^6 cells/ml with fresh complete differentiation medium. Add 5 μL M-CSF stock ([…]) to each 5 ml cell mixture. • (3) Seed isolated monocyte 100 μL per well on 96-well plate. • (4) Add test articles as the plate map using D300e (final concentration in μM). • (5) Differentiate the monocyte to macrophage in the presence of M-CSF to […] for 4 days. • (6) On day 4, add additional medium containing M-CSF. • (7) Add test compounds using D300e (final volume=[…]). • (8) On day 6, add IL-4 at 5× final concentration (IL-4 stock 0.1 mg/ml: dilute 10 μl stock into 10 ml medium for 100 ng/ml. Add 50 μl 100 ng/ml IL-4 to each well containing 200 μL medium to reach 20 ng/ml). • (9) On day 8, spin down the plates at 300×g for 5 min and collect the supernatant for cytokine quantification using MSD. • (10) M2 associated macrophage cytokines of interest are listed below in Table 12.
• (11) Collect cells for flow analysis of viability/CD11c/CD163/CD206.
Flow cytometry and surface marker CD163, CD11c, and CD206 were applied to characterize M2 repolarization. No stain and all stain with surface marker antibody to confirm the optimization of gating strategy.

In experiment [2] the test system is monocytes differentiated to M1 macrophage. In words: M1 macrophage differentiation assay. Format: cell-based, human. Conditions: TNF-α, IL-1b, IL-6, IL-12, IL-23 in supernatant on day 7 (MSD); concentrations of Table 9. The text has this:
The purpose of this study was to evaluate the effects of lobeglitazone and other thiazolidinediones on M1 macrophage differentiation. The test articles and vehicles used in this study were lobeglitazone sulfate, pioglitazone HCl, and rosiglitazone.
M1 macrophage differentiation assay timeline was as follows in Table 8.
Drug concentrations tested in the M1 differentiation assay are as in Table 9.
• (1) Revive frozen monocytes. • (2) Count cells and adjust the cell density to 0.5×10^6 cells/ml with fresh complete differentiation medium (RPMI1640+10% FBS+1% PS plus GM-CSF or M-CSF at 50 ng/ml). • (3) Seed isolated monocyte 100 μL per well on 96-well plate. • (4) Add test articles as the plate map using D300e (final concentration in μM). • (5) Differentiate the monocyte to macrophage in the presence of GM-CSF to M1, or M-CSF to M2 for 5 days. • (6) On day 5, add cytokines at 2× final concentration. • (6a) Prepare medium containing GM-CSF for M1 and M-CSF for M2. • (6b) Add corresponding activator to reach 2× final working concentration: (i) IFNγ stock 0.2 mg/ml: add 2.5 μL stock into 5 ml complete differentiation medium for 100 ng/ml; (ii) LPS stock 1.0 mg/ml: dilute to 20 μg/ml by mixing 2 μL stock into 100 μl medium; then add 10 μl 20 μg/ml LPS to 5 ml complete differentiation medium for 40 ng/ml; (iii) IL-4 stock 0.1 mg/ml: dilute 2 μL stock into 5 ml complete differentiation medium for 40 ng/ml. • (6c) Add 100 μL cytokine containing differentiating medium to each well, and total volume of each well is 200 μL. • (6d) Add test compound again using D300e. Make sure to set the final volume as 200 μL. • (7) Incubate cytokine and test compound for 48 hours. • (8) On day 7, spin down the plates at 300×g for 5 min and collect the supernatant for cytokine quantification using MSD. • (9) M1 associated macrophage cytokines TNF-α, IL-1b, IL-6, IL-12, and IL-23 were quantified.

Results on one molecule are retold here after US20250262209A1, “TREATMENT OF GASTROINTESTINAL DISEASES” (Aclipse Two, Inc., priority 2022, published 2025).

Structures are written as SMILES.

`COc1ccc(Oc2cc(N(C)CCOc3ccc(CC4SC(=O)NC4=O)cc3)ncn2)cc1` (stereo not shown) [lobeglitazone, 5-(4-(2-((6-(4-Methoxyphenoxy)pyrimidin-4-yl)(methyl)amino)ethoxy)benzyl)thiazolidine-2,4-dione]: in experiment [1] (CD163, CD11c, CD206, donor 1 and 2), the “concentration at which M2 repolarization was promoted (M2 macrophage surface markers, flow cytometry)” value is around 0.025 UM. In addition, the Eotaxin-2 expression entry in experiment [1] (cytokine analysis (MSD), donor 1) is listed as “remarkable promotion”. Further, the MDC expression result in experiment [1] (cytokine analysis (MSD), donor 3) was “remarkable promotion”. Further, the “M1 macrophage cytokines expression” value in experiment [2] is recorded as “did not show the promotion”.
